Like-named read-outs stand apart in the source and are kept apart here.
Key:
BRD4 protein = BRD4 protein (Homo sapiens (Human), UniProt O60885); experiment: BRD4 protein degradation inducing action in cancer cells (immunofluorescence, Operetta); assay type: cell-based; settings: LNCaP cells, 6 hr treatment, fluorescence intensity
Outline: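 DC50 = compound concentration reducing BRD4 immunofluorescence to 50% of untreated cells, interpolated between the two flanking concentrations. Treatment: LNCaP cells, 6 hr, 10% FBS/RPMI1640, 37° C. Cells were then fixed, permeabilized, stained with anti-BRD4 and Alexa Fluor 488 or 546 secondaries, and imaged.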

[1] = test system: human prostate cancer LNCaP cells; experiment: Cytotoxic action on cancer cells (WST-8, 96 hr); assay type: cell-based; settings: Homo sapiens, LNCaP, 96 h, read-out: LNCaP cytotoxic activity: IC50
Outline: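 Growth medium was 10% FBS/RPMI1640 throughout, with compound added after an overnight culture at 37° C. Survival was scored by WST-8 relative to untreated cells.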

[2] = test system: human acute myeloid leukemia MV-4-11 cell transplanted mouse; experiment: Antitumor effect in human acute myeloid leukemia MV-4-11 cell transplanted mouse; assay type: in vivo; settings: MV4-11, iv, 360 h
Description: The in vivo antitumor effect of the compound of the present invention was studied using human acute myeloid leukemia MV-4-11 cell transplanted mouse. MV-4-11 cells were subcutaneously transplanted into the inguinal region of male, 6-week-old BALB/c nude mouse (5×10^6 cells/mouse). The compound of the present invention was administered into the tail vein on days 1, 5, 9, 13 from the time point when the assumed tumor volume determined from 1/2ab^2 (a is major axis and b is minor axis of tumor) reached about 100 mm^3 (day 1). The control group was administered with a solvent, 10% hydroxypropyl-β-cyclodextrin solution. On day 15, the tumor was isolated, the weight was measured, and the tumor growth inhibitory rate IR (%) was calculated by the following formula. tumor growth inhibitory rate IR (%)=(1−tumor weight of administration group/tumor weight of nonadministration control group)×100

[3] = read-out: tumor growth inhibitory rate

Structure (SMILES) | DC50 (BRD4 protein) [nM] | IC50 [1] [nM] | inhibition in vivo at 0.3 mg/kg ([2]; dose 0.3 mg/kg/day, tail vein on days 1, 5, 9, 13, tumor weight on day 15, read-out: tumor growth inhibitory rate) [%] | inhibition in vivo at 3 mg/kg [2, 3] [%] | inhibition in vivo at 0.3 mg/kg [2, 3] [%] | inhibition in vivo at 3 mg/kg ([2]; dose 3 mg/kg/day, tail vein on days 1, 5, 9, 13, tumor weight on day 15, read-out: tumor growth inhibitory rate) [%] | inhibition in vivo at 1 mg/kg [2, 3] [%]
COC(=O)N[C@@H]1N=C(c2ccc(-c3ccc(OCC(=O)N[C@H](C(=O)N4C[C@H](O)C[C@H]4C(=O)N[C@@H](C)c4ccc(-c5scnc5C)cc4)C(C)(C)C)cc3)cc2)c2c(sc(C)c2C)-n2c(C)nnc21 [Example 31, methyl [(6R)-4-{4′-[2-({(2S)-1-[(2S,4R)-4-hydroxy-2-({(1S)-1-[4-(4-methyl-1,3-thiazol-5-yl)phenyl]ethyl}carbamoyl)pyrrolidin-1-yl]-3,3-dimethyl-1-oxobutan-2-yl}amino)-2-oxoethoxy][1,1′-biphenyl]-4-yl}-2,3,9-trimethyl-6H-thieno[3,2-f][1,2,4]triazolo[4,3-a][1,4]diazepin-6-yl]carbamate] | 0.062 | 0.039 | 95.6 | – | – | – | –
COC(=O)C[C@@H]1N=C(c2ccc(-c3ccc(OCC(=O)N[C@H](C(=O)N4C[C@H](O)C[C@H]4C(=O)NCc4ccc(-c5scnc5C)cc4)C(C)(C)C)cc3)cc2)c2c(sc(C)c2C)-n2c(C)nnc21 [Example 61, methyl [(6S)-4-{4′-[2-({(25)-1-[(2S,4R)-4-hydroxy-2-({[4-(4-methyl-1,3-thiazol-5-yl)phenyl]methyl}carbamoyl)pyrrolidin-1-yl]-3,3-dimethyl-1-oxobutan-2-yl}amino)-2-oxoethoxy][1,1′-biphenyl]-4-yl}-2,3,9-trimethyl-6H-thieno[3,2-f][1,2,4]triazolo[4,3-a][1,4]diazepin-6-yl]acetate] | 0.81 | 0.17 | – | 97.2 | – | – | –
COC(=O)C[C@@H]1N=C(c2ccc(-c3ccc(C(=O)N[C@H](C(=O)N4C[C@H](O)C[C@H]4C(=O)N[C@@H](C)c4ccc(-c5scnc5C)cc4)C(C)(C)C)cc3F)cc2)c2c(sc(C)c2C)-n2c(C)nnc21 [Example 62, methyl {(6S)-4-[2′-fluoro-4′-({(2S)-1-[(2S,4R)-4-hydroxy-2-({(1S)-1-[4-(4-methyl-1,3-thiazol-5-yl)phenyl]ethyl}carbamoyl)pyrrolidin-1-yl]-3,3-dimethyl-1-oxobutan-2-yl}carbamoyl) [1,1′-biphenyl]-4-yl]-2,3,9-trimethyl-6H-thieno[3,2-f][1,2,4]triazolo[4,3-a][1,4]diazepin-6-yl}acetate] | 0.24 | 0.26 | – | 97.4 | 95.6 | – | –
COC(=O)C[C@@H]1N=C(c2ccc(N3CC[C@@H](C(=O)NCCOc4ccc5oc(C(=O)N[C@H](C(=O)N6C[C@H](O)C[C@H]6C(=O)N[C@@H](C)c6ccc(-c7scnc7C)cc6)C(C)(C)C)cc5c4)C3)cc2)c2c(sc(C)c2C)-n2c(C)nnc21 [Example 67, methyl [(6S)-4-(4-{(3R)-3-[(2-{[2-({(2S)-1-[(2S,4R)-4-hydroxy-2-({(1S)-1-[4-(4-methyl-1,3-thiazol-5-yl)phenyl]ethyl}carbamoyl)pyrrolidin-1-yl]-3,3-dimethyl-1-oxobutan-2-yl}carbamoyl]-1-benzofuran-5-yl]oxy}ethyl)carbamoyl]pyrrolidin-1-yl}phenyl)-2,3,9-trimethyl-6H-thieno[3,2-f][1,2,4]triazolo[4,3-a][1,4]diazepin-6-yl]acetate] | 0.55 | 0.47 | – | – | – | 97.7 | –
COC(=O)C[C@@H]1N=C(c2ccc(-c3ccc(C(=O)N[C@H](C(=O)N4C[C@H](O)C[C@H]4C(=O)N[C@@H](C)c4ccc(-c5scnc5C)cc4)C(C)(C)C)c(F)c3)cc2)c2c(sc(C)c2C)-n2c(C)nnc21 [Example 94, methyl {(6S)-4-[3′-fluoro-4′-({(2S)-1-[(2S,4R)-4-hydroxy-2-({(1S)-1-[4-(4-methyl-1,3-thiazol-5-yl)phenyl]ethyl}carbamoyl)pyrrolidin-1-yl]-3,3-dimethyl-1-oxobutan-2-yl}carbamoyl)[1,1′-biphenyl]-4-yl]-2,3,9-trimethyl-6H-thieno[3,2-f][1,2,4]triazolo[4,3-a][1,4]diazepin-6-yl}acetate] | 0.64 | 0.29 | – | 98.2 | – | – | –
COC(=O)C[C@@H]1N=C(c2ccc(-c3ccc4oc(C(=O)N[C@H](C(=O)N5C[C@H](O)C[C@H]5C(=O)N[C@@H](C)c5ccc(-c6scnc6C)cc5)C(C)(C)C)nc4c3)cc2)c2c(sc(C)c2C)-n2c(C)nnc21 [Example 101, methyl [(6S)-4-{4-[2-({(2S)-1-[(2S,4R)-4-hydroxy-2-({(1S)-1-[4-(4-methyl-1,3-thiazol-5-yl)phenyl]ethyl}carbamoyl)pyrrolidin-1-yl]-3,3-dimethyl-1-oxobutan-2-yl}carbamoyl)-1,3-benzoxazol-5-yl]phenyl}-2,3,9-trimethyl-6H-thieno[3,2-f][1,2,4]triazolo[4,3-a][1,4]diazepin-6-yl]acetate] | 0.052 | 0.059 | – | 98.2 | – | – | –
COC(=O)C[C@@H]1N=C(c2ccc(N3CC[C@H](C(=O)Nc4ccc5oc(C(=O)N[C@H](C(=O)N6C[C@H](O)C[C@H]6C(=O)N[C@@H](C)c6ccc(-c7scnc7C)cc6)C(C)(C)C)cc5c4)C3)cc2)c2c(sc(C)c2C)-n2c(C)nnc21 [Example 138, methyl [(6S)-4-{4-[(3S)-3-{[2-({(2S)-1-[(2S,4R)-4-hydroxy-2-({(1S)-1-[4-(4-methyl-1,3-thiazol-5-yl)phenyl]ethyl}carbamoyl)pyrrolidin-1-yl]-3,3-dimethyl-1-oxobutan-2-yl}carbamoyl)-1-benzofuran-5-yl]carbamoyl}pyrrolidin-1-yl]phenyl}-2,3,9-trimethyl-6H-thieno[3,2-f][1,2,4]triazolo[4,3-a][1,4]diazepin-6-yl]acetate] | 0.62 | 0.24 | – | 98.6 | – | – | 97.8
COC(=O)C[C@@H]1N=C(c2ccc(-c3ccc(OCC(=O)N[C@H](C(=O)N4C[C@H](O)C[C@H]4C(=O)N[C@@H](C)c4ccc(-c5scnc5C)cc4)C(C)(C)C)cc3OC(F)(F)F)cc2)c2c(sc(C)c2C)-n2c(C)nnc21 [Example Compound 75, methyl [(6S)-4-{4′-[2-({(2S)-1-[(2S,4R)-4-hydroxy-2-({(1S)-1-[4-(4-methyl-1,3-thiazol-5-yl)phenyl]ethyl}carbamoyl)pyrrolidin-1-yl]-3,3-dimethyl-1-oxobutan-2-yl}amino)-2-oxoethoxy]-2′-(trifluoromethoxy)[1,1′-biphenyl]-4-yl}-2,3,9-trimethyl-6H-thieno[3,2-f] [1,2,4]triazolo[4,3-a][1,4]diazepin-6-yl]acetate] | 0.75 | 0.39 | – | – | – | – | –
COC(=O)C[C@@H]1N=C(c2ccc(-c3ccc(C(=O)N[C@@H](C)C(=O)N[C@H](C(=O)N4C[C@H](O)C[C@H]4C(=O)N[C@@H](C)c4ccc(-c5scnc5C)cc4)C(C)(C)C)cc3)cc2)c2c(sc(C)c2C)-n2c(C)nnc21 [Example Compound 91, methyl [(6S)-4-(4′-{[(2S)-1-({(2S)-1-[(2S,4R)-4-hydroxy-2-({(1S)-1-[4-(4-methyl-1,3-thiazol-5-yl)phenyl]ethyl}carbamoyl)pyrrolidin-1-yl]-3,3-dimethyl-1-oxobutan-2-yl}amino)-1-oxopropan-2-yl]carbamoyl}[1,1′-biphenyl]-4-yl)-2,3,9-trimethyl-6H-thieno[3,2-f] [1,2,4]triazolo[4,3-a][1,4]diazepin-6-yl]acetate] | 0.77 | 0.54 | – | – | – | – | –
COC(=O)C[C@@H]1N=C(c2ccc(-c3ccc(OCC(=O)N[C@H](C(=O)N4C[C@H](O)C[C@H]4C(=O)N[C@@H](C)c4ccc(-c5scnc5C)cc4)C(C)(C)C)c(C(F)(F)F)c3)cc2)c2c(sc(C)c2C)-n2c(C)nnc21 [Example Compound 100, methyl [(6S)-4-{4′-[2-({(2S)-1-[(2S,4R)-4-hydroxy-2-({(1S)-1-[4-(4-methyl-1,3-thiazol-5-yl)phenyl]ethyl}carbamoyl)pyrrolidin-1-yl]-3,3-dimethyl-1-oxobutan-2-yl}amino)-2-oxoethoxy]-3′-(trifluoromethyl)[1,1′-biphenyl]-4-yl}-2,3,9-trimethyl-6H-thieno[3,2-f] [1,2,4]triazolo[4,3-a][1,4]diazepin-6-yl]acetate] | 0.21 | 0.67 | – | – | – | – | –
